“And” between values parts separate entries of the source, which are not always exact repeats. Equal entries are not always repeated.
What was measured:
[1] = system: C57BL/6J mice; settings: HTR under equivalent conditions; ref Halberstadt and Geyer 2013; cited from earlier work
[2] = biological target: H1 receptors; settings: ref Nichols et al. 2002; Rickli et al. 2015; cited from earlier work
[3] = system: rats trained to discriminate saline from LSD; settings: ref Huang et al. 1994, cited from earlier work; for potency in rats trained to discriminate saline from LSD: rat drug discrimination
[4] = biological target: [125I]DOI-labeled sites; settings: read-out: Ki at [125I]DOI-labeled sites; ref Huang et al. 1994; cited from earlier work
[5] = system: human subjects; settings: cited from earlier work
[6] = biological target: α2-adrenoceptors; settings: [3H]clonidine, rat cortex; ref Leysen 1989; Marona-Lewicka and Nichols 1995; cited from earlier work
[7] = biological target: β1; settings: ref Nichols et al. 2002; cited from earlier work
[8] = biological target: β2; settings: ref Nichols et al. 2002; cited from earlier work
[9] = system: C57BL/6J mice; test: Head twitch response; assay type: in vivo, mouse
[10] = biological target: T1, 5-HT2A (Homo sapiens, UniProt P28223); test: Gq-mediated calcium flux in HEK293 cells, h5-HT2A; assay type: cell-based
[11] = biological target: T2, 5-HT2B (Homo sapiens, UniProt P41595); test: Gq-mediated calcium flux in HEK293 cells, h5-HT2B; assay type: cell-based
[12] = biological target: T3, human 5-HT2C INI (Homo sapiens, UniProt P28335); test: Gq-mediated calcium flux in HEK293 cells, h5-HT2C; assay type: cell-based
T3 sequence (P28335 33-458): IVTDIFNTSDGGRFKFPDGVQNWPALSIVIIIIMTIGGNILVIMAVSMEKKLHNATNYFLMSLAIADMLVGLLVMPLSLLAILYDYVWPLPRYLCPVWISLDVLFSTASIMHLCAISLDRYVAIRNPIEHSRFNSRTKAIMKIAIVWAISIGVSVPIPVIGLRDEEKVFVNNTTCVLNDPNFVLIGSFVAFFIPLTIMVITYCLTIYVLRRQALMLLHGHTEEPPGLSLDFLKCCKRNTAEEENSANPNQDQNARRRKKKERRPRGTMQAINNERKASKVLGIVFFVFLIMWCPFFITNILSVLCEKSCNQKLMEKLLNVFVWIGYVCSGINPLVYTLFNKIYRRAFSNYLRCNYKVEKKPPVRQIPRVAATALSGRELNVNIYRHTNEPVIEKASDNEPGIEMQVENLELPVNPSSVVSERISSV

[13] = biological target: β1 (Homo sapiens, UniProt P08588); test: NIMH PDSP competitive binding, β1; settings: primary binding assay
[14] = biological target: β2 (Homo sapiens, UniProt P07550); test: NIMH PDSP competitive binding, β2
[15] = biological target: β3 (Homo sapiens, UniProt P13945); test: NIMH PDSP competitive binding, β3; settings: [3H]CGP12177; cloned receptor; mean ± SEM
[16] = biological target: D1 (Homo sapiens, UniProt P21728); test: NIMH PDSP competitive binding, D1; settings: [3H]SCH23390; cloned receptor; mean ± SEM
[17] = biological target: D2 (Homo sapiens, UniProt P14416); test: NIMH PDSP competitive binding, D2; settings: [3H]N-methylspiperone; cloned receptor; mean ± SEM
[18] = biological target: D3 (Homo sapiens, UniProt P35462); test: NIMH PDSP competitive binding, D3; settings: [3H]N-methylspiperone; cloned receptor; mean ± SEM
[19] = biological target: D4 (Homo sapiens, UniProt P21917); test: NIMH PDSP competitive binding, D4; settings: [3H]N-methylspiperone; cloned receptor; mean ± SEM
[20] = biological target: D5 (Homo sapiens, UniProt P21918); test: NIMH PDSP competitive binding, D5; settings: [3H]SCH23390; cloned receptor; mean ± SEM
[21] = biological target: H1 (Homo sapiens, UniProt P35367); test: NIMH PDSP competitive binding, H1
[22] = biological target: H2 (Homo sapiens, UniProt P25021); test: NIMH PDSP competitive binding, H2; settings: [3H]tiotidine; cloned receptor; mean ± SEM
[23] = biological target: H3 (Cavia porcellus, UniProt Q9JI35); test: NIMH PDSP competitive binding, H3; settings: primary binding assay
[24] = biological target: H4 (Homo sapiens, UniProt Q9H3N8); test: NIMH PDSP competitive binding, H4
[25] = biological target: α1A (Homo sapiens, UniProt P35348); test: NIMH PDSP competitive binding, α1A; settings: [3H]prazosin; cloned receptor
[26] = biological target: α1B (Homo sapiens, UniProt P35368); test: NIMH PDSP competitive binding, α1B; settings: [3H]prazosin; cloned receptor; mean ± SEM
[27] = biological target: α1D (Homo sapiens, UniProt P25100); test: NIMH PDSP competitive binding, α1D; settings: [3H]prazosin; cloned receptor
[28] = biological target: α2A (Homo sapiens, UniProt P08913); test: NIMH PDSP competitive binding, α2A; settings: [3H]rauwolscine; cloned receptor; mean ± SEM
[29] = biological target: α2B (Homo sapiens, UniProt P18089); test: NIMH PDSP competitive binding, α2B; settings: [3H]rauwolscine; cloned receptor; mean ± SEM
[30] = biological target: α2C (Homo sapiens, UniProt P18825); test: NIMH PDSP competitive binding, α2C; settings: [3H]rauwolscine; cloned receptor; mean ± SEM
[31] = biological target: 5-HT6 (Homo sapiens, UniProt P50406); test: NIMH PDSP competitive binding, 5-HT6; settings: [3H]LSD; cloned receptor; mean ± SEM
[32] = biological target: 5-HT7 (Homo sapiens, UniProt P34969); test: NIMH PDSP competitive binding, 5-HT7; settings: [3H]LSD; cloned receptor; mean ± SEM
[33] = biological target: 5-HT1A (Homo sapiens, UniProt P08908); test: NIMH PDSP competitive binding, 5-HT1A; settings: [3H]8-OH-DPAT; cloned receptor; mean ± SEM
[34] = biological target: 5-HT1B (Homo sapiens, UniProt P28222); test: NIMH PDSP competitive binding, 5-HT1B; settings: [3H]GR125743; cloned receptor; mean ± SEM
[35] = biological target: 5-HT1D (Homo sapiens, UniProt P28221); test: NIMH PDSP competitive binding, 5-HT1D; settings: [3H]GR125743; cloned receptor; mean ± SEM
[36] = biological target: T1, 5-HT2A; test: NIMH PDSP competitive binding, 5-HT2A; settings: [3H]ketanserin; cloned receptor; mean ± SEM
[37] = biological target: T2, 5-HT2B; test: NIMH PDSP competitive binding, 5-HT2B; settings: [3H]LSD; cloned receptor; mean ± SEM
[38] = biological target: 5-HT2C (Homo sapiens, UniProt P28335); test: NIMH PDSP competitive binding, 5-HT2C
[39] = biological target: 5-HT5A (Homo sapiens, UniProt P47898); test: NIMH PDSP competitive binding, 5-HT5A; settings: [3H]LSD; cloned receptor; mean ± SEM
[40] = system: [125I]DOI-labeled sites; test: Binding to [125I]DOI-labeled sites; design: species or system rat; settings: from Ki values of Huang et al. 1994
[41] = system: 5-HT2A sites labeled with [3H]ketanserin; settings: rat frontal cortex / forebrain homogenate; ref Huang et al. 1994; cited from earlier work
[42] = IP, first 20-min of the test session
[43] = Ca2+ mobilization, HEK293 cells
[44] = percent 5-HT maximum response, mean ± SEM

T2 sequence (P41595 whole entry): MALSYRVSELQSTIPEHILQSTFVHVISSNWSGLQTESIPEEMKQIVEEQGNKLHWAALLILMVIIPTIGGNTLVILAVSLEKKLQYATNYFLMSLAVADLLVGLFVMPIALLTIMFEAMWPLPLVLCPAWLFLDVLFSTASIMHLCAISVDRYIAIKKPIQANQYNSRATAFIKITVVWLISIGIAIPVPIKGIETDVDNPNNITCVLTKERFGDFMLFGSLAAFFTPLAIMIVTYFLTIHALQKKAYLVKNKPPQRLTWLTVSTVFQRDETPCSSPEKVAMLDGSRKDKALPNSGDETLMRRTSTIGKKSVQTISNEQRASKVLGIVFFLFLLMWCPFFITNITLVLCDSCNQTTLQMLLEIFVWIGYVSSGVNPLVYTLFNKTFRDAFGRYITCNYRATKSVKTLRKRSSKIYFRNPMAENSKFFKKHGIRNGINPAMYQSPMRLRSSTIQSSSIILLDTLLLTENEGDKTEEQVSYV
T1 sequence (P28223 whole entry): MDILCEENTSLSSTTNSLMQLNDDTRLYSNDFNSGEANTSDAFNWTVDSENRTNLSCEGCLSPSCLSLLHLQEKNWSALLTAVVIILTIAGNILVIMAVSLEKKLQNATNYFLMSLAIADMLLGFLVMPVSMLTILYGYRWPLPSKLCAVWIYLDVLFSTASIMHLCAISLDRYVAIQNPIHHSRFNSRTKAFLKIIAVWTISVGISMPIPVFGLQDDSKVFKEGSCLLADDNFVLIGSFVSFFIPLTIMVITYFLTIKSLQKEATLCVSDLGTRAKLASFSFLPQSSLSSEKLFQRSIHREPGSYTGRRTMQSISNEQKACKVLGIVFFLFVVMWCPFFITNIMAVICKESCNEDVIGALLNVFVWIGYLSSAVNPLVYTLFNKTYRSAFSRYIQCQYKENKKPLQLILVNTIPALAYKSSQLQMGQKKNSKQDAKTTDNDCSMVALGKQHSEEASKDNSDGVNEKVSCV
H4, sequence (Q9H3N8 whole entry): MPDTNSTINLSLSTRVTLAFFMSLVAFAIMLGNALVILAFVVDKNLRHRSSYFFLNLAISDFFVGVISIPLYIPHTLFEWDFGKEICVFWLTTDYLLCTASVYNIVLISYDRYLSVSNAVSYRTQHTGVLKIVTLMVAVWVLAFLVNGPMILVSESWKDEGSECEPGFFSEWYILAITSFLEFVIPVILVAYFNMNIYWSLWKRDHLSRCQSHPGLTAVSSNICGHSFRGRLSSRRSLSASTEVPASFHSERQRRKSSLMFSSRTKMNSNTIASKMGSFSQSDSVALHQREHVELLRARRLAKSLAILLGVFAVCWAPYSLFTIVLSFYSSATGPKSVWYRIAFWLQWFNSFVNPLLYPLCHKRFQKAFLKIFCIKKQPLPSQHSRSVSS
β2 (Homo sapiens, UniProt P07550), sequence (P07550 whole entry): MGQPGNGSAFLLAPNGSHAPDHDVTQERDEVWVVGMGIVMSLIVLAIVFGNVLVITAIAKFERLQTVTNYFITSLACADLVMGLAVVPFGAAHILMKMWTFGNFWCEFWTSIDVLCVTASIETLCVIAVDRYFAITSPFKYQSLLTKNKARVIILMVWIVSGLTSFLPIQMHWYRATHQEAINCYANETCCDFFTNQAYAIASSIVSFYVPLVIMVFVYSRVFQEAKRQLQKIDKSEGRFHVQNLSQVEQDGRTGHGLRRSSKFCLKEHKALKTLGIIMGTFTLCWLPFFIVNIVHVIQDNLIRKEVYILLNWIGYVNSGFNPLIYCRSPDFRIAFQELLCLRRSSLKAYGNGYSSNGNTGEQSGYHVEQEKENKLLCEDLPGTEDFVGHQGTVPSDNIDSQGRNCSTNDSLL
H1, sequence (P35367 whole entry): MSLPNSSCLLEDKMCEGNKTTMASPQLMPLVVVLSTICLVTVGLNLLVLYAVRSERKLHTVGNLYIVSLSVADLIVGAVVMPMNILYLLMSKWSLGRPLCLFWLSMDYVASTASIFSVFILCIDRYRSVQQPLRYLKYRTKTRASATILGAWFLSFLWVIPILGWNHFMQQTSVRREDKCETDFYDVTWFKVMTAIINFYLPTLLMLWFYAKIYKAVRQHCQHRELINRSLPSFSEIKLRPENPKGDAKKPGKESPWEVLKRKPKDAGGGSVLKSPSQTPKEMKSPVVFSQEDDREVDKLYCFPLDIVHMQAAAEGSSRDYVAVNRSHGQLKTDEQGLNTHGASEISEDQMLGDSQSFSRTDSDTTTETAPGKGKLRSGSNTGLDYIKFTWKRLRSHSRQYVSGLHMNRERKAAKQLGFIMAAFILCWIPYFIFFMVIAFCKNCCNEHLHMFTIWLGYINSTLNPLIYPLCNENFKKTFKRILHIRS
α2B, sequence (P18089 whole entry): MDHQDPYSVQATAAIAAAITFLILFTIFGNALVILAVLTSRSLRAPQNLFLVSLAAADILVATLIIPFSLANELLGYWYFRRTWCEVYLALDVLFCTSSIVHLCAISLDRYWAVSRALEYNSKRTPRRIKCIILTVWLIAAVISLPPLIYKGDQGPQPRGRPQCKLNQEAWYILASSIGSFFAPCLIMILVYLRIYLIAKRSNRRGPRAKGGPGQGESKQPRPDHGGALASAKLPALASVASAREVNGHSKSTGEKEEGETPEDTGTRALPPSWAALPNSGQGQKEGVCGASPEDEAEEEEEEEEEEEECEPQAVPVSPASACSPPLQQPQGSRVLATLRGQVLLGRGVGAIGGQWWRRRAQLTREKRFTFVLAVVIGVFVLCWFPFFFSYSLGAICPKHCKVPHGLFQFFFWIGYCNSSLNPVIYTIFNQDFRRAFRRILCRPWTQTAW
D2, sequence (P14416 whole entry): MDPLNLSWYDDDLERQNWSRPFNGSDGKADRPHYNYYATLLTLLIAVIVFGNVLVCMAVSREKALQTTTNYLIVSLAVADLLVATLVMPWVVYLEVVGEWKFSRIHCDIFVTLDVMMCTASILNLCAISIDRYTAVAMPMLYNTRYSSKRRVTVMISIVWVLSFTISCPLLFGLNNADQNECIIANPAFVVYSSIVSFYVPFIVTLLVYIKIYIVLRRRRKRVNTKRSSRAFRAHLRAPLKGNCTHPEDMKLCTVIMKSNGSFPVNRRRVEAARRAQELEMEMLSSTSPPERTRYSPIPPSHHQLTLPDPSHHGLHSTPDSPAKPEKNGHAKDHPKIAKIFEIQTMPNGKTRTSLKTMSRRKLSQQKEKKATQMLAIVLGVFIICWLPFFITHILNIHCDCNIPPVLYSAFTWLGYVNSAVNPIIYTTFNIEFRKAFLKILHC
5-HT6, sequence (P50406 whole entry): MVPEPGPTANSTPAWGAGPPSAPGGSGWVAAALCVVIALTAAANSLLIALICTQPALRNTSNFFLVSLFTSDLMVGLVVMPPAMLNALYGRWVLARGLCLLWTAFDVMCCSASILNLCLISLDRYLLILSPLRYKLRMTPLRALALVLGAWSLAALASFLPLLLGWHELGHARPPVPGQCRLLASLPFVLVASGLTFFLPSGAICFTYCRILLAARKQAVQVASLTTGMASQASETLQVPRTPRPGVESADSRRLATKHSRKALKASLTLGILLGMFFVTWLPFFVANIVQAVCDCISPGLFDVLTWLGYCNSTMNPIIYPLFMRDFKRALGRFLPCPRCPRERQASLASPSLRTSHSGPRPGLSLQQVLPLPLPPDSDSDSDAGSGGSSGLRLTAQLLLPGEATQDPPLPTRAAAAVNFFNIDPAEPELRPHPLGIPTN
5-HT5A, sequence (P47898 whole entry): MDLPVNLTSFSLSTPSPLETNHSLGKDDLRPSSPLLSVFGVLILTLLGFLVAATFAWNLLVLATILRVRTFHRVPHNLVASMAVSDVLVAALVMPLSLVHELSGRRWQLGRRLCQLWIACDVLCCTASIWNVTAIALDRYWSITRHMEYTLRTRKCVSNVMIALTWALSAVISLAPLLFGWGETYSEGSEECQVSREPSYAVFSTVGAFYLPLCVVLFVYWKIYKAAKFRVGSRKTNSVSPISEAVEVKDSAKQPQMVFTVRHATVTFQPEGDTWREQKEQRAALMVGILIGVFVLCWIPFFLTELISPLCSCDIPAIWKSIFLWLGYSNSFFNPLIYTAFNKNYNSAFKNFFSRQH
5-HT7, sequence (P34969 whole entry): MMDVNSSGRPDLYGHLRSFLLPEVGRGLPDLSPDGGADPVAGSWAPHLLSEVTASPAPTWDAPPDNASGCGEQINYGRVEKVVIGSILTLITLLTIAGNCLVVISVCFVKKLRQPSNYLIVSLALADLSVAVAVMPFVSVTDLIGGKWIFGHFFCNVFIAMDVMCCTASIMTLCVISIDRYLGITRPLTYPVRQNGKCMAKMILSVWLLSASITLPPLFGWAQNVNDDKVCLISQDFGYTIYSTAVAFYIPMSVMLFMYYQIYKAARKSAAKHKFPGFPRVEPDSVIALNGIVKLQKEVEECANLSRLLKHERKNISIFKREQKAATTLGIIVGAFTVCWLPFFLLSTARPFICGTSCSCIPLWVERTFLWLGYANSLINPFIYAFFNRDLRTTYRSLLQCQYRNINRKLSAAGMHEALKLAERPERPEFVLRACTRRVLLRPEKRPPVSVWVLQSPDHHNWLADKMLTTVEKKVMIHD
D4, sequence (P21917 whole entry): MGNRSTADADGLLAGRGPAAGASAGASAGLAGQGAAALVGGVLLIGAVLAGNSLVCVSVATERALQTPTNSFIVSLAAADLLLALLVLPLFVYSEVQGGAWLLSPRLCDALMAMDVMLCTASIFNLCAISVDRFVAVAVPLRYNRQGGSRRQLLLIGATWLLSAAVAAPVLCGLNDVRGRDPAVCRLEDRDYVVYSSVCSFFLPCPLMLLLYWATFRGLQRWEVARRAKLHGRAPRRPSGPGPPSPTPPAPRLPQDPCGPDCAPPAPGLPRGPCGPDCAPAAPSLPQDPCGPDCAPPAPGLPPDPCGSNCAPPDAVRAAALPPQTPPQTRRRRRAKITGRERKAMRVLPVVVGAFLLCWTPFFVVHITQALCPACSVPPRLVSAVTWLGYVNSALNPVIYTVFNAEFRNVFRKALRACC

SMILES: CCN(CC)C(=O)[C@@H]1C=C2c3cccc4[nH]cc(c34)C[C@H]2N(C)C1 [LSD, (+)-Lysergic acid diethylamide]
- ED50 [1]: 132.8 nmol/kg
- Ki [2]: 1100 to 1500 nM
- potency in rats trained to discriminate saline from LSD [3]: 0.021 mg/kg
- Ki [4]: 1.43 nM
- typical oral doses ([5]; oral, humans, ref Shulgin and Shulgin 1997): 60 to 200 µg
- Ki [6]: 37 to 82 nM
- Ki [7]: 140 nM
- Ki [8]: 740 nM

SMILES: CCCN(C)C(=O)[C@@H]1C=C2c3cccc4[nH]cc(c34)C[C@H]2N(C)C1 [LAMPA, N-methyl-N-propyl lysergamide]
- HTR Counts (Mean ± SEM) ([9]; 0.1 mg/kg IP, 20 min): 15.8 ± 2.7
- HTR Counts (Mean ± SEM) ([9]; 0.3 mg/kg IP, 20 min): 31.0 ± 2.2
- HTR Counts (Mean ± SEM) ([9]; 1 mg/kg IP, 20 min): 19.5 ± 3.2
- HTR Counts (Mean ± SEM) ([9]; 3 mg/kg IP, 20 min): 7.4 ± 4.3
- ED50, nmol/kg (95% CI) [9, 42]: 358.3 (241.1–532.4) nmol/kg
- ED50, μg/kg (95% CI) [9, 42]: 115.9 (78.0–172.2) μg/kg
- effect in hallucinogen-experienced subjects ([5]; 100 μg p.o., six subjects, ref Abramson and Rolo 1967): no effect in four subjects and produced effects consistent with a threshold dose of LSD in two subjects

SMILES: CCN(C(=O)[C@@H]1C=C2c3cccc4[nH]cc(c34)C[C@H]2N(C)C1)C1CC1 [ECPLA, N-ethyl-N-cyclopropyl lysergamide]
- EC50 [10, 43]: 14.6 nM
- pEC50 ± SEM [10, 43]: 7.84 ± 0.04
- Emax % 5-HT [10, 44]: 91 % 5-HT and 91 ± 1 % 5-HT
- EC50 [11, 43]: 36.7 nM
- pEC50 ± SEM [11, 43]: 7.44 ± 0.06
- Emax % 5-HT [11, 44]: 73 % 5-HT and 73 ± 2 % 5-HT
- EC50 [12, 43]: 183 nM
- pEC50 ± SEM [12, 43]: 6.74 ± 0.09
- Emax % 5-HT [12, 44]: 73 % 5-HT and 73 ± 3 % 5-HT
- HTR Counts (Mean ± SEM) ([9]; 0.1 mg/kg IP, 30 min): 17.7 ± 2.6
- HTR Counts (Mean ± SEM) ([9]; 0.3 mg/kg IP, 30 min): 34.6 ± 5.1
- HTR Counts (Mean ± SEM) ([9]; 1 mg/kg IP, 30 min): 28.2 ± 2.6
- ED50, nmol/kg (95% CI) ([9]; IP, entire 30-min test session): 317.2 (213.2–471.9) nmol/kg
- ED50, μg/kg (95% CI) ([9]; IP, entire 30-min test session): 130.2 (87.5–193.7) μg/kg
- dose of peak HTR response ([9]; biphasic inverted-U-shaped dose-response, IP): 0.3 mg/kg
- displacement at 10 μM [13]: < 50%
- Ki ([14]; [3H]CGP12177, cloned receptor, IC50 > 10 μM in the primary binding assay): > 10000 nM
- displacement at 10 μM ([14]; primary binding assay, 10 μM): < 50%
- Ki [15]: 2420 ± 639 nM
- Ki [16]: 502 ± 122 nM
- Ki [17]: 150 ± 32 nM
- Ki [18]: 104 ± 29 nM
- Ki [19]: 92.3 ± 11.9 nM
- Ki [20]: 1500 ± 386 nM
- Ki ([21]; [3H]pyrilamine, cloned receptor, IC50 > 10 μM in the primary binding assay): > 10000 nM
- displacement at 10 μM ([21]; primary binding assay, 10 μM): < 50%
- Ki [22]: 890 ± 137 nM
- displacement at 10 μM [23]: < 50%
- Ki ([24]; [3H]histamine, cloned receptor, IC50 > 10 μM in the primary binding assay): > 10000 nM
- displacement at 10 μM ([24]; primary binding assay, 10 μM): < 50%
- Ki [25]: > 10000 nM
- Ki [26]: 1950 ± 152 nM
- Ki [27]: > 10000 nM
- Ki [28]: 144 ± 64 nM
- Ki [29]: 62.3 ± 15.1 nM
- Ki [30]: 438 ± 118 nM
- Ki [31]: 21.7 ± 4.4 nM
- Ki [32]: 27.3 ± 11.5 nM
- Ki [33]: 3.2 ± 0.5 nM
- Ki [34]: 42.3 ± 8.7 nM
- Ki [35]: 12.6 ± 1.9 nM
- Ki [36]: 16.5 ± 6 nM
- Ki [37]: 5.3 ± 1.3 nM
- fold lower affinity than LSD for the 5-HT2C receptor ([38]; ECPLA Ki 85.7 nM vs LSD Ki 30 nM): ~3 fold
- Ki ([38]; [3H]mesulergine, cloned receptor, mean ± SEM): 85.7 ± 31.2 nM
- Ki [39]: 8.6 ± 4.2 nM

SMILES: CC(C)N(C)C(=O)[C@@H]1C=C2c3cccc4[nH]cc(c34)C[C@H]2N(C)C1 [MIPLA, N-methyl-N-isopropyl lysergamide]
- HTR Counts (Mean ± SEM) ([9]; 0.1 mg/kg IP, 30 min): 12.3 ± 1.1
- HTR Counts (Mean ± SEM) ([9]; 0.2 mg/kg IP, 30 min): 31.8 ± 1.9
- HTR Counts (Mean ± SEM) ([9]; 0.4 mg/kg IP, 30 min): 26.6 ± 3.1
- ED50, nmol/kg (95% CI) ([9]; IP, entire 30-min test session): 421.7 (360.5–493.1) nmol/kg
- ED50, μg/kg (95% CI) ([9]; IP, entire 30-min test session): 136.4 (116.6–159.5) μg/kg
- affinity relative to LSD at [125I]DOI-labeled sites [40]: about 82%
- potency in rats trained to discriminate saline from LSD [3]: 0.036 mg/kg
- fold lower affinity than LSD at [3H]ketanserin-labeled 5-HT2A sites [41]: 6 fold
- Ki [4]: 1.75 nM
- doses producing LSD-like psychedelic effects ([5]; human subjects, ref Shulgin 2016): 180 to 300 µg
- potency as a psychedelic in man relative to LSD ([5]; ref Shulgin 2016): one-third

SMILES: CCN(C(=O)[C@@H]1C=C2c3cccc4[nH]cc(c34)C[C@H]2N(C)C1)C(C)C [EIPLA, N-ethyl-N-isopropyl lysergamide]
- fold lower potency than LSD in the rat drug discrimination paradigm [3]: ~3 fold
- fold lower affinity than LSD at [3H]ketanserin-labeled 5-HT2A sites [41]: three-fold

Source: publication PMC6848745 (Psychopharmacology, 2018)
